Measured values taken from US5550110A, “Endothelin Antagonists II” (Warner-Lambert Company, priority 1994, dated 1996).
Peptide text beside a SMILES is read from it.

What was measured:
[1] = molecular target: T1, rat recombinant ETB receptor (CHO cells) (Rattus norvegicus, UniProt P21451); test: Inhibition of ET-1 stimulated arachidonic acid release (AAR-B); assay type: cell-based; details: ET-1 0.3 nM
T1 construct: expressed in transfected cells; host or cells: CHO cells
T1 sequence (P21451 27-442): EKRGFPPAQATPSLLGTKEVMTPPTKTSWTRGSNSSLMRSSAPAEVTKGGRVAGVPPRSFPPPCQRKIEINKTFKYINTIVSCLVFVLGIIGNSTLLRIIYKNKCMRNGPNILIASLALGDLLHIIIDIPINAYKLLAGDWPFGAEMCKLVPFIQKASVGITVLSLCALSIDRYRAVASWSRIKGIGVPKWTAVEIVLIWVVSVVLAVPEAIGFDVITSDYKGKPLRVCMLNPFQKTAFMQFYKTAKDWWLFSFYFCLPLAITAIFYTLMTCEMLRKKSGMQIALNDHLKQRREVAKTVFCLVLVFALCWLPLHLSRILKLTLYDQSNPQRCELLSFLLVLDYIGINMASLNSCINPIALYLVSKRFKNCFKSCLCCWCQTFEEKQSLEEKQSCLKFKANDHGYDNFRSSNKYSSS
Protocol: (§1) In Vitro Inhibition of ET-1 Stimulated Arachidonic Acid Release in Cultured Rabbit Vascular Smooth Muscle Cells (AAR-A) or CHO Cells Expressing Rat Recombinant ETB Receptor (AAR-B) by Compounds of Formula I
(§2) Antagonist activity is measured by the ability of added compounds to reduce endothelin-stimulated arachidonic acid release in cultured vascular smooth muscle cells as arachidonic acid release (AAR). [^3 H] Arachidonic Acid Loading Media (LM) is DME/F12+0.5% fetal calf serum (FCS)×0.25 mCi/mL [^3 H] arachidonic acid (Amersham). Confluent monolayers of cultured rabbit renal artery vascular smooth muscle cells (AAR-A) or CHO cells expressing rat recombinant ETB receptor (AAR-B) were incubated in 0.5 mL of the LM over 18 hours, at 37° C., in 5% CO2. The LM was aspirated and the cells were washed once with the assay buffer (Hank's balanced salt solution [BSS]+10 mM HEPES+fatty acid-free BSA (1 mg/mL)), and incubated for 5 minutes with 1 mL of the prewarmed assay buffer. This solution was aspirated, followed by an additional 1 mL of prewarmed assay buffer, and further incubated for another 5 minutes. A final 5-minute incubation was carried out in a similar manner. The same procedure was repeated with the inclusion of 10 μL of the test compound (1 nM to 1 μM) and 10 μL ET-1 (0.3 nM) and the incubation was extended for 30 minutes. This solution was then collected, […] of scintillation cocktail was added, and the amount of [^3 H] arachidonic acid was determined in a liquid scintillation counter.

[2] = molecular target: T2, endothelin receptor (ETB), rat cerebellar membranes (Rattus norvegicus, UniProt P21451); test: Endothelin Receptor Binding Assay-B (ERBA-B), [125I]-ET-1 binding in rat cerebellar membranes; details: [125I]-ET-1 25 pM, read-out: ERRA-B IC50
T2 construct: thaw one aliquot of frozen rat cerebellar membranes (2 mg protein in 0.5 mL); from tissue; host or cells: rat cerebellum (membranes)
T2 sequence (P21451 27-442): T1 sequence (P21451 27-442)
Protocol: Endothelin Receptor Binding Assay-B (ERBA-B) [^125 I]-ET-1 Binding in Rat Cerebellar Membranes
The tissue is made up of 20 mM tris(hydroxymethyl)aminomethane hydrochloride (Trizma) buffer, 2 mM ethylenediaminetetra acetate, 100 μM phenylmethylsulfonyl fluoride.
First, thaw one aliquot of frozen rat cerebellar membranes (2 mg protein in 0.5 mL). Next, add 0.5 mL membrane aliquot to 4.5 mL cold tissue buffer, polytron at 7,500 revolutions per minute for 10 seconds. Finally, dilute tissue suspension 1/100 (0.1 mL suspension+9.9 mL tissue buffer), polytron again, and place ice.
Medium 199 with Hank's salts plus 25 mM Hepes+1 mg/mL bovine serum albumin.
Amersham [^125 I]-ET-1 (aliquots of 2×10^6 cpm per […] aliquot of [^125 I]-ET-1 with 5.2 mL dilution buffer, place on ice until use (final concentration will be 20,000 cpm per tube, or 25 pM).
Add 50 μL each of cold [^125 ]-ET-1 and competing ligand to tubes on ice. Mix in 150 μL of tissue to each tube, vortex briefly, then tap to force all liquids to bottom (total assay volume=250 μL). Then place the tubes in a 37° C. water bath for 2 hours.
Add 2.5 mL cold wash buffer (50 mM Trizma buffer) to each tube, filter, and then wash tube with additional 2.5 mL wash buffer and add to filter. Finally, wash filters with an additional 2.5 mL of cold wash buffer.
Count filters for radioactivity in gamma counter.

[3] = test system: endothelin receptor, cultured rabbit renal artery vascular smooth muscle cells; test: Inhibition of ET-1 stimulated arachidonic acid release (AAR-A); assay type: cell-based; details: ET-1 0.3 nM
Protocol: as §1, §2

[4] = test system: ETA (rabbit femoral artery); details: ET-1 as agonist, endothelium-denuded rings
Text: (§3) In Vitro Antagonism of ET-1 Stimulated Vasoconstriction in the Rabbit Femoral Artery (ETA) and Sarafotoxin 6c Stimulated Vasoconstriction in the Rabbit Pulmonary Artery (ETB)
(§4) Male New Zealand rabbits were killed by cervical dislocation and exsanguination. Femoral and pulmonary arteries were isolated, cleaned of connective tissue, and cut into 4-mm rings. The endothelium was denuded by placing the rings over hypodermic tubing (32 guage for femoral rings and 28 guage for pulmonary rings, Small Parts, Inc, Miami, Fla.) and gently rolling them. Denuded rings were mounted in 20 mL organ baths containing Krebs-bicarbonate buffer (composition in mM: NaCl, 118.2; NaHCO3, 24.8; KCl, 4.6; MgSO4 7.H2 O, 1.2; KH2 PO4, 1.2; CaCl2.2H2 O; Ca--Na2 EDTA, 0.026; dextrose, 10.0), that was maintained at 37° C. and gassed continuously with 5% CO2 in oxygen (pH 7.4). Resting tension was adjusted to 3.0 g for femoral and 4.0 g pulmonary arteries; the rings were left for 90 minutes to equilibrate.

[5] = test system: endothelin receptor (ETA), rabbit renal artery vascular smooth muscle cells; test: Endothelin Receptor Binding Assay-A (ERBA-A), intact cell binding of [125I]-ET-1; details: [125I]-ET-1 25 pM
Protocol: The compounds of Formula I are valuable antagonists of endothelin. […] Thus, the compounds of Formula I were tested for their ability to inhibit [^125 I]-ET-1([^125 I]-Endothelin-1) binding in a receptor assay according to the following procedures: Endothelin Receptor Binding Assay-A (ERBA-A) Intact Cell Binding of [^125 I]-ET-1 The cells used were rabbit renal artery vascular smooth muscle cells grown in a 48-well dish (1 cm^2) (confluent cells). The assay buffer was a medium 199 containing Hanks salts and 25 mM Hepes buffer (Gibco 380-2350AJ), supplemented with penicillin/streptomycin/fungizone (0.5%) and bovine serum albumin (1 mg/mL). Amersham radioiodinated endothelin-1 [^125 I]-ET-1 was used at final concentration of 20,000 cpm/0.25 mL (25 pM). […] Second, remove the assay buffers, place the dish on ice, and add 150 μL of cold assay buffer described above to each well. Third, add […] each of cold [^125 I]-ET-1 and competing ligand to the solution (at the same time if possible). Next, place dish in a 37° C. water bath for about 2 hours and gently agitate the dish every 15 minutes. Discard the radioactive incubation mixture in the sink and wash wells 3 times with 1 mL of cold phosphate buffered saline. Last, add […] of 0.25 molar sodium hydroxide, agitate for 1 hour on a rotator, and then transfer the sodium hydroxide extract to gamma counting tubes and count the radioactivity.

[6] = molecular target: ETB (rabbit pulmonary artery) (Oryctolagus cuniculus, UniProt Q9N0W7)
ETB (rabbit pulmonary artery), sequence (Q9N0W7 27-441): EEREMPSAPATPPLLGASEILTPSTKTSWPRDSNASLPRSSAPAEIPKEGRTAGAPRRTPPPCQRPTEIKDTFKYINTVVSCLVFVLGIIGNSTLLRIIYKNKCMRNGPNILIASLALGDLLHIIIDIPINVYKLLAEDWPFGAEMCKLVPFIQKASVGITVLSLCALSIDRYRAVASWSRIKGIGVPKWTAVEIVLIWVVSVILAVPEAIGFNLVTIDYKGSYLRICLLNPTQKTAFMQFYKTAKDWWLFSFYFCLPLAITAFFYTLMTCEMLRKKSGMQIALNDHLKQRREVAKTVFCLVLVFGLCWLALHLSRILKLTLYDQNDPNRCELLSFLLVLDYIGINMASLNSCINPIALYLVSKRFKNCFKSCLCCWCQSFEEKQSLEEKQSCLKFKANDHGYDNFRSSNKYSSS
Text: as §3, §4

[7] = test system: CaCO-2 cells (human colon adenocarcinoma cell line); assay type: in vitro ADME
Protocol: For experiments, the cells were counted, then diluted to 2.5×10^5 cells/mL for planting (400 μL per well) onto Snapwell culture membranes with 2.5 mL media in the lower chamber. Media in the […] was changed every 2 to 3 days. Cells used for this series of experiments were between passage 38 and 91. 2-[N-Morpholino]ethanesulfonic acid (MES)+25 mM glucose was used as incubation buffer for all the experiments and all incubation solutions were prepared to an osmotic pressure of 280 to 300 milliosmoles. The concentration of the endothelin antagonist being studied (for all experiments) was 100 μM and another endothelin antagonist with similar HPLC characteristics (retention time 2-3 minutes from the ET antagonist being studied, and similar chemical characteristics) was used at a concentration of 25 μM as an internal standard to compensate for any injection error. Prior to the start of the experiment, the transepithelial electrical resistance (TEER) was measured for each Snapwell (in media) at three points of the membrane. […] The membranes were washed by swirling in 0.9% normal saline and mounted in the pretreated diffusion chambers [0.1 mg/mL human serum albumin for 1 to 2 hours at 37° C. with O2 bubbling followed by air drying at 37° C. overnight, then with 4.5 to 5.0 mL dosing solution (MES+glucose+^14 C-PEG-4000 (5000 dpm/50 μL)+drug) for 5 minutes and 4.5 to 5.0 mL MES+glucose rinse just before the experiment.] The apical (donor) side was filled with 4.5 to 5.0 mL dosing solution, the basolateral (receiver) side with MES+glucose. Samples were removed from the donor and receiver compartments over the course of the experiment and analyzed for ^14 C-PEG 4000 (cell membrane integrity) and endothelin content.

[8] = molecular target: T3, ETB (porcine pulmonary arteries) (Sus scrofa, UniProt P35463); details: isolated, endothelium-intact porcine pulmonary arteries; cited from earlier work
T3 construct: host or cells: isolated, endothelium-intact porcine pulmonary arteries
T3 sequence (P35463 27-443): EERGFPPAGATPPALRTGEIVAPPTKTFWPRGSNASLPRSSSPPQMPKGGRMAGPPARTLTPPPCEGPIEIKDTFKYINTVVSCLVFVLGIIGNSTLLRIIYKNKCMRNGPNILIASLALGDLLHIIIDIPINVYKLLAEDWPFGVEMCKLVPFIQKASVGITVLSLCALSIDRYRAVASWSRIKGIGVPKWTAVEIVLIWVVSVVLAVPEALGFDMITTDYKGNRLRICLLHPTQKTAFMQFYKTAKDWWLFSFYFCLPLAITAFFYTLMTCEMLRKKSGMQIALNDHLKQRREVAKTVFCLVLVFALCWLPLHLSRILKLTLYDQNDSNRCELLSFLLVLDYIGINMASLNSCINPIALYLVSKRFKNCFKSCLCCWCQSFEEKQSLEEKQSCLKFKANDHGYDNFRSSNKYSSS

Molecule | IC50 [1] [nM] | IC50 [2] [nM] | IC50 [3] [nM] | pA2 Femoral [4] | IC50 [5] [nM] | Kb [6] [nM] | absorption in the gut suggested by CaCO-2 values [7] | effect on vascular tone [8]
CC[C@H](C)[C@H](NC(=O)[C@H](CC(=O)O)NC(=O)[C@H](CC(C)C)NC(=O)[C@H](N)C1c2ccccc2CCc2ccccc21)C(=O)N[C@H](C(=O)N[C@@H](Cc1c[nH]c2ccccc12)C(=O)O)[C@@H](C)CC [Example 2, D-Bhg-Leu-Asp-Ile-Ile-Trp] (HELM PEPTIDE1{[N[C@@H](C(=O)[*:2])C1c2ccccc2CCc2ccccc21].L.D.I.I.W}$$$$V2.0) | 9600 | 2100 | 100 | 5.7 | 450 |  |  | 
CC[C@H](C)[C@H](NC(=O)[C@H](CC(=O)O)NC(=O)[C@H](CC(C)C)NC(=O)[C@H](NC(C)=O)C1c2ccccc2C=Cc2ccccc21)C(=O)N[C@H](C(=O)N[C@@H](Cc1c[nH]c2ccccc12)C(=O)O)[C@@H](C)CC [Example 6, Ac-D-Bheg-Leu-Asp-Ile-Ile-Trp] (HELM PEPTIDE1{[ac].[O=C([C@H](N[*:1])C1c2ccccc2C=Cc2ccccc21)[*:2]].L.D.I.I.W}$$$$V2.0) | 17 | 19 | 3 | 6.8 | 5 | 39.8 |  | 
CC[C@H](C)[C@H](NC(=O)[C@H](CC(=O)O)NC(=O)[C@H](CCCN)NC(=O)[C@H](NC(C)=O)C1c2ccccc2CCc2ccccc21)C(=O)N[C@H](C(=O)N[C@@H](Cc1c[nH]c2ccccc12)C(=O)O)[C@@H](C)CC [Example 7, Ac-D-Bhg-Orn-Asp-Ile-Ile-Trp] (HELM PEPTIDE1{[ac].[O=C([C@H](N[*:1])C1c2ccccc2CCc2ccccc21)[*:2]].[Orn].D.I.I.W}$$$$V2.0) |  | 1500 | 37 | 6.5 | 22 |  |  | 
CC[C@H](C)[C@H](NC(=O)[C@H](CC(=O)O)NC(=O)[C@H](CCC(=O)O)NC(=O)[C@H](NC(C)=O)C1c2ccccc2CCc2ccccc21)C(=O)N[C@H](C(=O)N[C@@H](Cc1c[nH]c2ccccc12)C(=O)O)[C@@H](C)CC [Example 8, Ac-D-Bhg-Glu-Asp-Ile-Ile-Trp] (HELM PEPTIDE1{[ac].[O=C([C@H](N[*:1])C1c2ccccc2CCc2ccccc21)[*:2]].E.D.I.I.W}$$$$V2.0) | 27 | 22 | 7 | 6.5 | 5.5 | 100 |  | 
CC[C@H](C)[C@H](NC(=O)[C@@H](NC(=O)[C@@H](CC(=O)O)NC(=O)[C@H](CC(C)C)NC(=O)[C@H](NC(C)=O)C1c2ccccc2CCc2ccccc21)[C@@H](C)CC)C(=O)N[C@@H](Cc1c[nH]c2ccccc12)C(=O)O [Example 16, Ac-D-Bhg-Leu-D-Asp-Ile-Ile-Trp] (HELM PEPTIDE1{[ac].[O=C([C@H](N[*:1])C1c2ccccc2CCc2ccccc21)[*:2]].L.[dD].I.I.W}$$$$V2.0) |  | 400 |  |  | 140 |  | 5-10% | 
ET[1,3,11,15-Ala]: linear ET analog, reported selective ETB agonist (ASASSLMDKEAVYFAHLDIIW; Endothelin-1; UniProt P05305 53-73, looked up, variant C1A C3A C11A C15A) |  |  |  |  |  |  |  | caused vasorelaxation
ET[6-21, 1,3,11,15-Ala] |  |  |  |  |  |  |  | caused vasorelaxation
ET[8-21,11,15-Ala] |  |  |  |  |  |  |  | caused vasorelaxation
N-Acetyl-ET[10-21,11,15-Ala] |  |  |  |  |  |  |  | caused vasorelaxation
